Tests used:
[1] = target: T1, CD93 (Mus musculus, UniProt O89103); assay: Mouse MLL-AF9 compound screening: colony forming capacity of BL6 or CD93-/- GMPs (leukemia stem cells) from AML mice; assay type: cell-based; details: GMPs from AML mice cultured overnight with 10 uM and 1 uM compound; colonies counted after 7 days; FIG. 1 and FIG. 2
T1 construct: endogenous in cells; host or cells: FACS-purified GFP+ lin- Sca-1- c-kit(high) CD34+ Fcγ+ GMPs from MLL-AF9 AML mice (BL6; CD93-/- cells as control)
T1 sequence (O89103 23-644): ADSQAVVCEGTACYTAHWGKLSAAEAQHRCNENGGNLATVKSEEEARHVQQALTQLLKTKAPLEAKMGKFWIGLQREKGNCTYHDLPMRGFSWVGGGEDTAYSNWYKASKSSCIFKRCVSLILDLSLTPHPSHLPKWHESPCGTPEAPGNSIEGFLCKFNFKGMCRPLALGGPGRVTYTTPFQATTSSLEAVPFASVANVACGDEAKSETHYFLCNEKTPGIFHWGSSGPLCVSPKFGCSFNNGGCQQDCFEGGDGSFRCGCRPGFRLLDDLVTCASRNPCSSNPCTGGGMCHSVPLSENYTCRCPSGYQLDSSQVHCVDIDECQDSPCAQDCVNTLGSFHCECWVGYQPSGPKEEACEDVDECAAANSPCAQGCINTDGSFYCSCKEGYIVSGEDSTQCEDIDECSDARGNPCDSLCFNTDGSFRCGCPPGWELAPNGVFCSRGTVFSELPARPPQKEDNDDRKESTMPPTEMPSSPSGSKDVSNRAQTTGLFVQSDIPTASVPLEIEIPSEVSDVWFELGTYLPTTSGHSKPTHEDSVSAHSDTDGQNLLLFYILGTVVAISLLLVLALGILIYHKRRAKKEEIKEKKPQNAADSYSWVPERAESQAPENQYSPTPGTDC
Description: The colony formation (% of control) is shown on the Y-axis. […] Compounds showing inhibition of CD93, show no or a very low difference in colony formation of CD93−/− and at the same time a low percentage of colony formation of BL6.
For testing the small molecule compounds targeting CD93 on GMPs (leukemia stem cells) colony forming capacity, 10^3 FACS-purified GFP+lin-Sca-1-c-kithighCD34+Fcγ+ GMPs from BL6 or CD93−/− transduced AML mice were cultured overnight in 96-well U-bottom plates (NeoLab) in RPMI medium supplemented with 10% FCS, 1% L-glutamine, 1% penicillin/streptomycin, 100 ng/ml recombinant mouse (rm)-SCF (Miltenyi) and 20 ng/ml rm-TPO (ProSpec), in the presence or absence of 10 uM and 1 uM compound in technical triplicates. Compounds were dissolved in DMSO. The next day, cells were plated in semi-solid methylcellulose in the absence of any compound. Number of colonies was assessed by inverted light microscopy after 7 days.
In this assay, the semi-solid Media used was 1.27% Methylcellulose (1500cp, Sigma), supplemented with 15% FCS, 20% BIT (50 mg/ml BSA in IMDM, 1.44 U/ml rh-insulin [Actrapid; Novo Nordisk], and 250 ng/ml human holo transferrin [Prospec]), 100 μM 2-mercaptoethanol, 100 U/ml penicillin, 100 μg/ml streptomycin, 2 mM L-glutamine, and 50 ng/ml rm-SCF (Miltneyi), 10 ng/ml rm-IL-3 (Miltenyi), 10 ng/ml rm-IL-6 (Miltenyi), and 50 ng/ml rm-Flt3-ligand (ProSpec).

[2] = test system: BL6 leukemia stem cells; details: murine CML model, BL6 and CD93-/- mice; Riether et al. 2021; cited from earlier work
[3] = test system: human CML leukemia stem cells; details: Riether et al. 2021; cited from earlier work

SMILES | inhibition profile of CD93 (colony formation, % of control, BL6 vs CD93-/- GMPs) [1] | colony formation of BL6 leukemia stem cells [2] | leukemia stem cell numbers and function [3]
O=C(c1csc(-c2ccccc2)n1)N1CCCN(C2CC2)CC1 [Compound 21560] | good inhibition profiles of CD93 |  | 
O=C(c1nc2ccccc2s1)N1CCCN(C2CC2)CC1 [Compound 22393] | good inhibition profiles of CD93 |  | 
COc1ccccc1-c1nc(C(=O)N2CCCN(C3CC3)CC2)cs1 [Compound 22394] | good inhibition profiles of CD93 |  | 
O=C(c1ccn(-c2ccccc2)n1)N1CCCN(C2CC2)CC1 [Compound 22742] | good inhibition profiles of CD93 |  | 
CN(C)CCN(C)C(=O)c1csc(-c2ccccc2)n1 [Compound 22815] | good inhibition profiles of CD93 |  | 
O=C(c1csc(-c2ccccc2)n1)N1CCN2CCC1C2 (centres unmarked) [Compound 22817] | good inhibition profiles of CD93 |  | 
CCN(CC)CCNC(=O)c1cc(Cl)c(N)cc1OC [metoclopramide] |  | reduced colony formation of BL6 leukemia stem cells | diminished leukemia stem cell numbers and function
